# From US20100167397A1, “ENDOCRINE CELL LINES AND METHOD OF USING THE SAME” (KYOWA HAKKO KOGYO CO., LTD., priority 2002, published 2010)
# B1: G2A (protein, UniProt Q9UNW8 1-380, looked up)
# Probable G-protein coupled …: MCPMLLKNGYNGNATPVTTTAPWASLGLSAKTCNNVSFEESRIVLVVVYSAVCTLGVPANCLTAWLALLQVLQGNVLAVYLLCLALCELLYTGTLPLWVIYIRNQHRWTLGLLACKVTAYIFFCNIYVSILFLCCISCDRFVAVVYALESRGRRRRRTAILISACIFILVGIVHYPVFQTEDKETCFDMLQMDSRIAGYYYARFTVGFAIPLSIIAFTNHRIFRSIKQSMGLSAAQKAKVKHSAIAVVVIFLVCFAPYHLVLLVKAAAFSYYRGDRNAMCGLEERLYTASVVFLCLSTVNGVADPIIYVLATDHSRQEVSRIHKGWKEWSMKTDVTRLTHSRDTEELQSPVALADHYTFSRPVHPPGSPCPAKRLIEESC
# B2: GPCR25D111A: GPCR25 mutant GPCR, 111th aspartic acid substituted with alanine; SEQ ID NO: 192 (protein)
# chain: MNSTCIEEQHDLDHYLFPIVYIFVIIVSIPANIGSLCVSFLQPKKESELGIYLFSLSLSDLLYALTLPLWIDYTWNKDNWTFSPALCKGSAFLMYMKFYSSTAFLTCIAVARYLAVVYPLKFFFLRTRRIALMVSLSIWILETIFNAVMLWEDETVVEYCDAEKSNFTLCYDKYPLEKWQINLNLFRTCTGYAIPLVTILICNRKVYQAVRHNKATENKEKKRIIKLLVSITVTFVLCFTPFHVMLLIRCILEHAVNFEDHSNSGKRTYTMYRITVALTSLNCVADPILYCFVTETGRYDMWNILKFCTGRCNTSQRQRKRILSVSTKDTMELEVLE
# modifications: GPCR25D111A
# B3: RE2D124A: RE2 mutant GPCR, 124th aspartic acid substituted with alanine; SEQ ID NO: 190 (protein)
# chain: MSLNSSLSCRKELSNLTEEEGGEGGVIITQFIAIIVITIFVCLGNLVIVVTLYKKSYLLTLSNKFVFSLTLSNFLLSVLVLPFVVTSSIRREWIFGVVWCNFSALLYLLISSASMLTLGVIAIARYYAVLYPMVYPMKITGNRAVMALVYIWLHSLIGCLPPLFGWSSVEFDEFKWMCVAAWHREPGYTAFWQIWCALFPFLVMLVCYGFIFRVARVKARKVHCGTVVIVEEDAQRTGRKNSSTSTSSSGSRRNAFQGVVYSANQCKALITILVVLGAFMVTWGPYMVVIASEALWGKSSVSPSLETWATWLSFASAVCHPLIYGLWNKTVRKELLGMCFGDRYYREPFVQRQRTSRLFSISNRITDLGLSPHLTALMAGGQPLGHSSSTGDTGFSCSQDSGNLRAL
# modifications: RE2D124A
# B4: GPR35D113A: GPR35 mutant GPCR, 113th aspartic acid substituted with alanine; SEQ ID NO: 191 (protein)
# chain: MNGTYNTCGSSDLTWPPAIKLGFYAYLGVLLVLGLLLNSLALWVFCCRMQQWTETRIYMTNLAVADLCLLCTLPFVLHSLRDTSDTPLCQLSQGIYLTNRYMSISLVTAIAVARYVAVRHPLRARGLRSPRQAAAVCAVLWVLVIGSLVARWLLGIQEGGFCFRSTRHNFNSMRFPLLGFYLPLAVVVFCSLKVVTALAQRPPTDVGQAEATRKAARMVWANLLVFVVCFLPLHVGLTVRLAVGWNACALLETIRRALYITSKLSDANCCLDAICYYYMAKEFQEASALAVAPRAKAHKSQDSLCVTLA
# modifications: GPR35D113A
# B5: PGMO334E135F: mutant where the 135th glutamic acid of the PGMO334 polypeptide was substituted with phenylalanine; SEQ ID NO: 193 (protein)
# chain: MSPECARAAGDAPLRSLEQANRTRFPFFSDVKGDHRLVLAAVETTVLVLIFAVSLLGNVCALVLVARRRRRGATACLVLNLFCADLLFISAIPLVLAVRWTEAWLLGPVACHLLFYVMTLSGSVTILTLAAVSLFRMVCIVHLQRGVRGPGRRARAVLLALIWGYSAVAALPLCVFFRVVPQRLPGADQEISICTLIWPTIPGEISWDVSFVTLNFLVPGLVIVISYSKILQITKASRKRLTVSLAYSESHQIRVSQQDFRLFRTLFLLMVSFFIMWSPIIITILLILIQNFKQDLVIWPSLFFWVVAFTFANSALNPILYNMTLCRNEWKKIFCCFWFPEKGAILTDTSVKRNDLSIISG
# modifications: PGMO334E135F
# B6: PGMO334E135Q: mutant where the 135th glutamic acid of PGMO334 polypeptide was substituted with glutamine; SEQ ID NO: 194 (protein)
# chain: MSPECARAAGDAPLRSLEQANRTRFPFFSDVKGDHRLVLAAVETTVLVLIFAVSLLGNVCALVLVARRRRRGATACLVLNLFCADLLFISAIPLVLAVRWTEAWLLGPVACHLLFYVMTLSGSVTILTLAAVSLQRMVCIVHLQRGVRGPGRRARAVLLALIWGYSAVAALPLCVFFRVVPQRLPGADQEISICTLIWPTIPGEISWDVSFVTLNFLVPGLVIVISYSKILQITKASRKRLTVSLAYSESHQIRVSQQDFRLFRTLFLLMVSFFIMWSPIIITILLILIQNFKQDLVIWPSLFFWVVAFTFANSALNPILYNMTLCRNEWKKIFCCFWFPEKGAILTDTSVKRNDLSIISG
# modifications: PGMO334E135Q
# B7: PGMO334E135A: mutant where the 135th glutamic acid of PGMO334 polypeptide was substituted with alanine; SEQ ID NO: 195 (protein)
# chain: MSPECARAAGDAPLRSLEQANRTRFPFFSDVKGDHRLVLAAVETTVLVLIFAVSLLGNVCALVLVARRRRRGATACLVLNLFCADLLFISAIPLVLAVRWTEAWLLGPVACHLLFYVMTLSGSVTILTLAAVSLARMVCIVHLQRGVRGPGRRARAVLLALIWGYSAVAALPLCVFFRVVPQRLPGADQEISICTLIWPTIPGEISWDVSFVTLNFLVPGLVIVISYSKILQITKASRKRLTVSLAYSESHQIRVSQQDFRLFRTLFLLMVSFFIMWSPIIITILLILIQNFKQDLVIWPSLFFWVVAFTFANSALNPILYNMTLCRNEWKKIFCCFWFPEKGAILTDTSVKRNDLSIISG
# modifications: PGMO334E135A
# B8: PGMO334D259S: mutant where the 259th aspartic acid of PGMO334 polypeptide was substituted with serine; SEQ ID NO: 196 (protein)
# chain: MSPECARAAGDAPLRSLEQANRTRFPFFSDVKGDHRLVLAAVETTVLVLIFAVSLLGNVCALVLVARRRRRGATACLVLNLFCADLLFISAIPLVLAVRWTEAWLLGPVACHLLFYVMTLSGSVTILTLAAVSLERMVCIVHLQRGVRGPGRRARAVLLALIWGYSAVAALPLCVFFRVVPQRLPGADQEISICTLIWPTIPGEISWDVSFVTLNFLVPGLVIVISYSKILQITKASRKRLTVSLAYSESHQIRVSQQSFRLFRTLFLLMVSFFIMWSPIIITILLILIQNFKQDLVIWPSLFFWVVAFTFANSALNPILYNMTLCRNEWKKIFCCFWFPEKGAILTDTSVKRNDLSIISG
# modifications: PGMO334D259S
# B9: GPR43R217P: mutant where the 217th arginine of GPR43 polypeptide was substituted with proline; SEQ ID NO: 197 (protein)
# chain: MLPDWKSSLILMAYIIIFLTGLPANLLALRAFVGRIRQPQPAPVHILLLSLTLADLLLLLLLPFKIIEAASNFRWYLPKVVCALTSFGFYSSIYCSTWLLAGISIERYLGVAFPVQYKLSRRPLYGVIAALVAWVMSFGHCTIVIIVQYLNTTEQVRSGNEITCYENFTDNQLDVVLPVRLELCLVLFFIPMAVTIFCYWRFVWIMLSQPLVGAQRPRRAVGLAVVTLLNFLVCFGPYNVSHLVGYHQRKSPWWRSIAVVFSSLNASLDPLLFYFSSSVVRRAFGRGLQVLRNQGSSLLGRRGKDTAEGTNEDRGVGQGEGMPSSDFTTE
# modifications: GPR43R217P
# B10: GPR43R217PE106D: GPR43R217P mutant where the 106th glutamic acid was substituted with aspartic acid; SEQ ID NO: 198 (protein)
# chain: MLPDWKSSLILMAYIIIFLTGLPANLLALRAFVGRIRQPQPAPVHILLLSLTLADLLLLLLLPFKIIEAASNFRWYLPKVVCALTSFGFYSSIYCSTWLLAGISIDRYLGVAFPVQYKLSRRPLYGVIAALVAWVMSFGHCTIVIIVQYLNTTEQVRSGNEITCYENFTDNQLDVVLPVRLELCLVLFFIPMAVTIFCYWRFVWIMLSQPLVGAQRPRRAVGLAVVTLLNFLVCFGPYNVSHLVGYHQRKSPWWRSIAVVFSSLNASLDPLLFYFSSSVVRRAFGRGLQVLRNQGSSLLGRRGKDTAEGTNEDRGVGQGEGMPSSDFTTE
# modifications: GPR43R217P/E106D
# Test system: CRE reporter in GBCRC6
# Test: Constitutive activity of GPCR, Method 1 (GBCRC6 host, Renilla reniformis luciferase, induction ratio with 17β-estradiol)
# Assay type: cell-based, human
# Details: Method 1; GBCRC6 host; activity with 17β-estradiol divided by activity without; control plasmid about 1
# Method: After the incubation, coelenterazine h (Molecular Proves) (final concentration 250 nmol/L) was added to measure the activity of Renilla reniformis luciferase. For the activity measurement, a Wallac 1420 ARVOsx Multilabel Counter (manufactured by Wallac Berthold Japan) or a VIM camera (Argus-50/2D Luminometer/MP; manufactured by Hamamatsu Photonics) was used.
# In each method, the induction ratio of the cells transfected with the control plasmid was about 1. It is judged that the higher the induction ratio of the cells to which a GPCR expression plasmid was transfected, the stronger the constitutive activity of the GPCR.
row,Molecule,Constitutive Activity (induction ratio)
1,GPCR 25,20-fold
2,GPR 4,40-fold
3,GPR 6,63-fold
4,GPR 30,27-fold
5,GPR 35,25-fold
6,GPR 61,12-fold
7,GPR 62,12-fold
8,GPR 88,15-fold
9,GPR 92,11-fold
10,OGR1,3.6-fold
11,OGR1S221N,12.7-fold
12,B1,20-fold

# Same assay, conditions: method 1 of (2) of Example 22; induction ratio of reporter activity with 17β-estradiol
row,Molecule,Constitutive Activity
1,OGR1S221N/D118A: OGR1S221N mutant GPCR with 118th aspartic acid substituted with alanine; SEQ ID NO: 189,56-fold
2,B2,35-fold
3,B3,32-fold
4,B4,97-fold

# Same assay, conditions: method of (2) of Example 22 utilizing GBCRC6 as a host
row,Molecule,induction ratio (constitutive activity)
1,B5,about 3 fold
2,B6,about 3 fold
3,B7,about 14 fold
4,B8,about 5 fold
5,B9,about 2 fold
6,B10,about 17 fold
